In the supplement of paper PMC10307832:

How the values were obtained:
Assay in all cases: relative viability (nuclei count vs DMSO), 5 days (fraction); higher = more cells survive
XMD8-85 + Decitabine = compound: CN1CCN(CC1)C2=CC(=C(C=C2)NC3=NC=C4C(=N3)N(C5=CC=CC=C5C(=O)N4C)C)OC [XMD8-85] + Nc1ncn([C@H]2C[C@H](O)[C@@H](CO)O2)c(=O)n1 [Decitabine] (partner 2 µM)
In short: (§1)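 For relative viability, nuclei counts in treated wells were divided by those in vehicle wells. Lung cancer cell lines had been pin-tool dosed in 1536-well plates the day after seeding and cultured for 5 days, then fixed and stained in one step (final 0.05% Triton X-100, 1% formaldehyde, 1 ug/ml Hoechst) and imaged at 4×. Doses were one drug alone or a fixed anchor-drug dose plus five library-drug doses (not always all listed) in √10 steps, and values are duplicate-plate medians.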

XMD8-85 + Bortezomib = compound: CN1CCN(CC1)C2=CC(=C(C=C2)NC3=NC=C4C(=N3)N(C5=CC=CC=C5C(=O)N4C)C)OC [XMD8-85] + CC(C)C[C@H](NC(=O)[C@H](Cc1ccccc1)NC(=O)c1cnccn1)B(O)O [Bortezomib] (partner 0.002 µM)
In short: as §1

4EGI-1 + Dasatinib = compound: O=C(O)C(Cc1ccccc1[N+](=O)[O-])=NNc1nc(-c2ccc(Cl)c(Cl)c2)cs1 (mixture of isomers) [4EGI-1] + Cc1nc(Nc2ncc(C(=O)Nc3c(C)cccc3Cl)s2)cc(N2CCN(CCO)CC2)n1 [Dasatinib] (partner 0.075 µM)
In short: as §1

4EGI-1 + Luminespib = compound: O=C(O)C(Cc1ccccc1[N+](=O)[O-])=NNc1nc(-c2ccc(Cl)c(Cl)c2)cs1 (mixture of isomers) [4EGI-1] + CCNC(=O)c1noc(-c2cc(C(C)C)c(O)cc2O)c1-c1ccc(CN2CCOCC2)cc1 [Luminespib] (partner 0.01 µM)
In short: as §1

Cell Line: A-427
- relative viability (XMD8-85 + Decitabine; first compound 0.08 µM): 0.601
- relative viability (XMD8-85 + Decitabine; first compound 0.253 µM): 0.596
- relative viability (XMD8-85 + Decitabine; first compound 0.8 µM): 0.546
- relative viability (XMD8-85 + Decitabine; first compound 2.53 µM): 0.573
- relative viability (XMD8-85 + Decitabine; first compound 8 µM): 0.539
- relative viability (XMD8-85 + Bortezomib; first compound 0.08 µM): 1.04
- relative viability (XMD8-85 + Bortezomib; first compound 0.253 µM): 1.05
- relative viability (XMD8-85 + Bortezomib; first compound 0.8 µM): 0.948
- relative viability (XMD8-85 + Bortezomib; first compound 2.53 µM): 1.18
- relative viability (XMD8-85 + Bortezomib; first compound 8 µM): 0.893
- relative viability (4EGI-1 + Dasatinib; first compound 0.5 µM): 0.797
- relative viability (4EGI-1 + Dasatinib; first compound 1.581 µM): 0.513
- relative viability (4EGI-1 + Dasatinib; first compound 5 µM): 0.527
- relative viability (4EGI-1 + Dasatinib; first compound 15.81 µM): 0.46
- relative viability (4EGI-1 + Dasatinib; first compound 50 µM): 0.159
- relative viability (4EGI-1 + Luminespib; first compound 0.5 µM): 1.04
- relative viability (4EGI-1 + Luminespib; first compound 1.581 µM): 0.658
- relative viability (4EGI-1 + Luminespib; first compound 5 µM): 1.01
- relative viability (4EGI-1 + Luminespib; first compound 15.81 µM): 0.793
- relative viability (4EGI-1 + Luminespib; first compound 50 µM): 0.315

Cell Line: LCLC-97TM1
- relative viability (XMD8-85 + Decitabine; first compound 0.08 µM): 0.222
- relative viability (XMD8-85 + Decitabine; first compound 0.253 µM): 0.206
- relative viability (XMD8-85 + Decitabine; first compound 0.8 µM): 0.204
- relative viability (XMD8-85 + Decitabine; first compound 2.53 µM): 0.284
- relative viability (XMD8-85 + Decitabine; first compound 8 µM): 0.195
- relative viability (XMD8-85 + Bortezomib; first compound 0.08 µM): 0.473
- relative viability (XMD8-85 + Bortezomib; first compound 0.253 µM): 0.357
- relative viability (XMD8-85 + Bortezomib; first compound 0.8 µM): 0.841
- relative viability (XMD8-85 + Bortezomib; first compound 2.53 µM): 0.72
- relative viability (XMD8-85 + Bortezomib; first compound 8 µM): 0.204
- relative viability (4EGI-1 + Dasatinib; first compound 0.5 µM): 0.733
- relative viability (4EGI-1 + Dasatinib; first compound 1.581 µM): 0.708
- relative viability (4EGI-1 + Dasatinib; first compound 5 µM): 0.873
- relative viability (4EGI-1 + Dasatinib; first compound 15.81 µM): 0.878
- relative viability (4EGI-1 + Dasatinib; first compound 50 µM): 0.739
- relative viability (4EGI-1 + Luminespib; first compound 0.5 µM): 0.875
- relative viability (4EGI-1 + Luminespib; first compound 1.581 µM): 0.675
- relative viability (4EGI-1 + Luminespib; first compound 5 µM): 0.715
- relative viability (4EGI-1 + Luminespib; first compound 15.81 µM): 0.955
- relative viability (4EGI-1 + Luminespib; first compound 50 µM): 0.0986

Cell Line: LU99A
- relative viability (XMD8-85 + Decitabine; first compound 0.08 µM): 0.919
- relative viability (XMD8-85 + Decitabine; first compound 0.253 µM): 0.86
- relative viability (XMD8-85 + Decitabine; first compound 0.8 µM): 1.08
- relative viability (XMD8-85 + Decitabine; first compound 2.53 µM): 0.769
- relative viability (XMD8-85 + Decitabine; first compound 8 µM): 0.694
- relative viability (XMD8-85 + Bortezomib; first compound 0.08 µM): 1.11
- relative viability (XMD8-85 + Bortezomib; first compound 0.253 µM): 1.21
- relative viability (XMD8-85 + Bortezomib; first compound 0.8 µM): 1.18
- relative viability (XMD8-85 + Bortezomib; first compound 2.53 µM): 1.23
- relative viability (XMD8-85 + Bortezomib; first compound 8 µM): 1
- relative viability (4EGI-1 + Dasatinib; first compound 0.5 µM): 0.615
- relative viability (4EGI-1 + Dasatinib; first compound 1.581 µM): 0.405
- relative viability (4EGI-1 + Dasatinib; first compound 5 µM): 0.54
- relative viability (4EGI-1 + Dasatinib; first compound 15.81 µM): 0.449
- relative viability (4EGI-1 + Dasatinib; first compound 50 µM): 0.235
- relative viability (4EGI-1 + Luminespib; first compound 0.5 µM): 0.246
- relative viability (4EGI-1 + Luminespib; first compound 1.581 µM): 0.271
- relative viability (4EGI-1 + Luminespib; first compound 5 µM): 0.308
- relative viability (4EGI-1 + Luminespib; first compound 15.81 µM): 0.228
- relative viability (4EGI-1 + Luminespib; first compound 50 µM): 0.205

Cell Line: NCI-H1993
- relative viability (XMD8-85 + Decitabine; first compound 0.08 µM): 0.543
- relative viability (XMD8-85 + Decitabine; first compound 0.253 µM): 0.555
- relative viability (XMD8-85 + Decitabine; first compound 0.8 µM): 0.585
- relative viability (XMD8-85 + Decitabine; first compound 2.53 µM): 0.561
- relative viability (XMD8-85 + Decitabine; first compound 8 µM): 0.57
- relative viability (XMD8-85 + Bortezomib; first compound 0.08 µM): 0.965
- relative viability (XMD8-85 + Bortezomib; first compound 0.253 µM): 0.958
- relative viability (XMD8-85 + Bortezomib; first compound 0.8 µM): 1.08
- relative viability (XMD8-85 + Bortezomib; first compound 2.53 µM): 1.29
- relative viability (XMD8-85 + Bortezomib; first compound 8 µM): 1.07
- relative viability (4EGI-1 + Dasatinib; first compound 0.5 µM): 0.595
- relative viability (4EGI-1 + Dasatinib; first compound 1.581 µM): 0.616
- relative viability (4EGI-1 + Dasatinib; first compound 5 µM): 0.543
- relative viability (4EGI-1 + Dasatinib; first compound 15.81 µM): 0.467
- relative viability (4EGI-1 + Dasatinib; first compound 50 µM): 0.441
- relative viability (4EGI-1 + Luminespib; first compound 0.5 µM): 1.03
- relative viability (4EGI-1 + Luminespib; first compound 1.581 µM): 0.786
- relative viability (4EGI-1 + Luminespib; first compound 5 µM): 0.801
- relative viability (4EGI-1 + Luminespib; first compound 15.81 µM): 0.637
- relative viability (4EGI-1 + Luminespib; first compound 50 µM): 0.496

Cell Line: NCI-H441
- relative viability (XMD8-85 + Decitabine; first compound 0.08 µM): 0.256
- relative viability (XMD8-85 + Decitabine; first compound 0.253 µM): 0.245
- relative viability (XMD8-85 + Decitabine; first compound 0.8 µM): 0.256
- relative viability (XMD8-85 + Decitabine; first compound 2.53 µM): 0.261
- relative viability (XMD8-85 + Decitabine; first compound 8 µM): 0.205
- relative viability (XMD8-85 + Bortezomib; first compound 0.08 µM): 0.509
- relative viability (XMD8-85 + Bortezomib; first compound 0.253 µM): 0.442
- relative viability (XMD8-85 + Bortezomib; first compound 0.8 µM): 0.392
- relative viability (XMD8-85 + Bortezomib; first compound 2.53 µM): 0.581
- relative viability (XMD8-85 + Bortezomib; first compound 8 µM): 0.367
- relative viability (4EGI-1 + Dasatinib; first compound 0.5 µM): 0.609
- relative viability (4EGI-1 + Dasatinib; first compound 1.581 µM): 0.547
- relative viability (4EGI-1 + Dasatinib; first compound 5 µM): 0.536
- relative viability (4EGI-1 + Dasatinib; first compound 15.81 µM): 0.565
- relative viability (4EGI-1 + Dasatinib; first compound 50 µM): 0.229
- relative viability (4EGI-1 + Luminespib; first compound 0.5 µM): 0.375
- relative viability (4EGI-1 + Luminespib; first compound 1.581 µM): 0.315
- relative viability (4EGI-1 + Luminespib; first compound 5 µM): 0.294
- relative viability (4EGI-1 + Luminespib; first compound 15.81 µM): 0.306
- relative viability (4EGI-1 + Luminespib; first compound 50 µM): 0.292
